Laboratory results as given in patent publication US12446583B2, “Methods of pest control in soybean” (SYNGENTA CROP PROTECTION AG, priority 2012, dated 2025).

Tested on: Euschistus heros
Assay: Euschistus heros (Neotropical Brown Stink Bug) contact/feeding activity on sprayed soybean plants
Format: in vivo
Details: for mortality at 50 ppm: 120 h, read-out: control (mortality and growth effects)
Description: Euschistus heros (Neotropical Brown Stink Bug) (Contact/Feeding Activity)
2 week old soybean plants are sprayed in a turn table spray chamber with the diluted spray solutions. After drying, 2 soybean seeds are added and plants are infested with 10 N-2 nymphs of the neotropical brown stink bug Euschistus heros in plastic test boxes. Boxes are incubated in a climate chamber at 25° C. and 60% RH. Evaluation is done 5 days after infestation on mortality and growth effects.
Compounds are tested according to the above method.

| Structure (SMILES) | mortality at 50 ppm | Control/% (application rate 0.8 ppm) | Control/% (application rate 3 ppm) | Control/% (application rate 12.5 ppm) |
| --- | --- | --- | --- | --- |
| CCN1OCC(NC(=O)c2ccc(C3=NOC(c4cc(Cl)c(Cl)c(Cl)c4)(C(F)(F)F)C3)cc2Br)C1=O (stereo not shown) [Compound A3] | ≥ 80% | – | – | – |
| CCN1OCC(NC(=O)c2ccc(C3=NOC(c4cc(Cl)c(Cl)c(Cl)c4)(C(F)(F)F)C3)cc2C(F)(F)F)C1=O (stereo not shown) [Compound A5] | ≥ 80% | – | – | – |
| CCN1OCC(NC(=O)c2ccc(C3=NOC(c4cc(Cl)c(Cl)c(Cl)c4)(C(F)(F)F)C3)cc2Cl)C1=O (stereo not shown) [Compound A1] | ≥ 80% | – | – | – |
| CCN1OCC(NC(=O)c2ccc(C3=NOC(c4cc(Cl)cc(Cl)c4)(C(F)(F)F)C3)cc2C(F)(F)F)C1=O (stereo not shown) [Compound A4] | ≥ 80% | – | – | – |
| Cc1cc(C2=NOC(c3cc(Cl)cc(Cl)c3)(C(F)(F)F)C2)ccc1C(=O)NC1CON(C)C1=O (stereo not shown) [Compound A15] | ≥ 80% | – | – | – |
| Cc1cc(C2=NOC(c3cc(Cl)cc(Cl)c3)(C(F)(F)F)C2)ccc1C(=O)N[C@@H]1CON(Cc2ccccc2)C1=O (stereo partly shown) [Reference compound, reference compound] | – | 0% | 35% | 90% |
| CCN1OCC(NC(=O)c2ccc(C3=NOC(c4cc(Cl)cc(Cl)c4)(C(F)(F)F)C3)cc2Br)C1=O (stereo not shown) [Compound A2] | ≥ 80% | – | – | – |
| Cc1cc(C2=NOC(c3cc(Cl)cc(Cl)c3)(C(F)(F)F)C2)ccc1C(=O)N[C@@H]1CON(CC(F)(F)F)C1=O (stereo partly shown) [Compound of the invention] | – | 15% | 85% | 100% |
| CCN1OCC(NC(=O)c2ccc(C3=NOC(c4cc(Cl)cc(Cl)c4)(C(F)(F)F)C3)cc2C)C1=O (stereo not shown) [Compound A17] | ≥ 80% | – | – | – |
